# Assay results taken from patent publication US20220387467A1, “USE OF SGLT2 INHIBITORS TO TREAT PRIMARY BILLIARY CHOLANGITIS” (AVOLYNT, priority 2019, published 2022).
# Entries after “also recorded” stand apart in the source; their conditions may differ.
# Columns and labels:
# TIA mice = experiment: TIA mouse model of liver and biliary disease resembling PBC/PSC, H&E liver histology and survival; type: in vivo; settings: for inflammation at the interface between the hepatic parenchyma and the portal tracts (interface hepatitis) / proliferation of bile ductules (bile ductular proliferation) / periportal and biliary inflammation: TIA mice at 11 weeks, H&E liver sections, vs untreated TIA mice; for inflammation at the interface between the hepatic parenchyma and the portal tracts (interface hepatitis): 0.03% in chow for 7 weeks; for proliferation of bile ductules (bile ductular proliferation) / periportal and biliary inflammation: 0.03% in chow from 4 weeks of age
# Text: The following Examples describe the utilization of a murine model of liver damage to assess the effectiveness of a treatment regimen based on the oral administration of remogliflozin etabonate. The murine model is based on mice that are deficient for the expression of tumor necrosis factor alpha (“TNFα”), interleukin 10 (“IL-10”), and activation-induced cytidine deaminase (“AICDA”). As the mice are deficient in TNF, IL-10, and AICDA, they are referred to, herein, as “TIA” mice. These liver outcomes in these animals also closely resemble that of PBC.
# Moreover, as AICDA is required for immunoglobulin (“Ig”) class switching, TIA mice lack IgG and IgA, a phenotype analogous to humans with hyper-IgM syndrome. Therefore, with the combination of AICDA deficiency with the risk factors associated with TNFα and IL-10 deficiencies, TIA mice also develop liver and biliary inflammation reminiscent of PSC and PBC symptoms in humans. Accordingly, the TIA model is useful for investigating mechanisms that act early in PBC pathogenesis, as well as treatments that can prevent progression to PBC and PSC.
# Example 1. Orally-administered remogliflozin etabonate reduces inflammatory cell infiltration, bile ductular proliferation, and interface hepatitis in TIA mice. TIA mice were created by first breeding TNFα knock out (“KO”) C57BL/6 mice, (strain B6.129S-Tnf^tm1Gkl/J, stock #005540, Jackson Laboratories, Bar Harbor, Me.) with IL-10 KO mice (strain B10.129P2(B6)-IL10^tm1Cgn/J, Stock No. 002251, Jackson Laboratories) to produce a population of mice that were deficient in TNFα and IL-10. Because mice with a TNFα −/− and IL10 −/− genotype spontaneously develop inflammatory bowel disease (“IBD”) (Hale 2012), a condition associated with poor breeding success (Nagy 2016), the mice needed for further breeding to generate an AICDA population, were generated by breeding offspring with a TNFα and IL10+/− genotype with AICDA −/− mice, which were obtained from Dr. Tasuku Honjo (Muramatsu 2000)), to produce a population of TNFα −/−, IL10 −/−, and AICDA+/−(“TI-hetA”) males and females. In turn, TI-hetA pairs were bred to generate populations that were 25% TIA mice, and 50% non-colitis-susceptible TI-hetA littermates that could be used as control populations. All populations were exposed to the same environment from birth. The mice were housed in polycarbonate micro-isolator cages, in individually ventilated racks, under barrier conditions that excluded all known pathogens, including Helicobacter pylori and Norovirus. Mice had ad libitum access to water, and to a standard diet (PicoLab Mouse Diet 20/5058, LabDiet, St. Louis, Mo., USA).
# At four (4) weeks of age, TIA (40) and TI-hetA (22) mice were randomized into experimental groups that received either a standard diet (20 TIA and 12 het), or a standard diet formulated 0.03% remogliflozin etabonate (20 TIA and 10 het) (Avolynt Inc., USA). The mice were maintained on this diet for seven (7) weeks. Body weights were obtained three (3) times, weekly, to assess the general health of mice, and to track the development of inflammatory bowel disease (IBD). Glycosuria in the experimental groups was assessed by applying freshly voided urine directly to the glucose test patch on an Accutest® URS-10 urinary reagent test strips (Jant Pharmaceutical Corp., Encino, Calif., USA). Mice were humanely euthanized before reaching the experimental endpoint, of eleven (11) weeks of age, if they lost >15% body weight, or developed rectal prolapse.
# To characterize biliary lesions in TIA mice at the end of the 7 week treatment period, liver tissue was obtained from the remogliflozin-treated, and untreated groups, for histologic examination. The excised liver tissue was fixed in Carnoy's fixative solution, and processed into paraffin blocks. The paraffin blocks were sectioned, and stained with Hematoxylin and eosin (H&E) for pathologic analysis. The H&E-stained sections were scored by an American Board of Pathology-certified pathologist. […]
# [1] = Plasma remogliflozin after oral immediate release (IR) tablet; type: in vivo
# Text: Oral dosage forms according to the invention are typically tablets or capsules. Tablets can be obtained by direct compression of the mixed components of a dosage form, including a therapeutically effective amount of an SGLT2 inhibitor, and selected excipients, like cellulose derivatives, metacrylates, chitosan, carboxymethylstarch, or mixtures thereof. For example, a compressed tablet according to the invention, can be prepared by granulating a SGLT2 inhibitor with microcrystalline cellulose and croscarmellose sodium with a water and povidone solution. The resulting granules are dried, milled, and then blended with mannitol, microcrystalline cellulose, and croscarmellose. The blend is lubricated with magnesium stearate and compressed. […] Indeed, Tmax for an IR remogliflozin etabonate oral dosage form according to the invention occurs at 1 hour, or less, following ingestion of the dosage form by a subject.
compound,measurement,setting,value
CCOC(=O)OC[C@H]1O[C@@H](Oc2nn(C(C)C)c(C)c2Cc2ccc(OC(C)C)cc2)[C@H](O)[C@@H](O)[C@@H]1O [remogliflozin etabonate],number of TIA mice that required early euthanasia,"TIA mice; Remo group versus control group, 7 week study",no statistical difference
same,early death,"TIA mice; Remo group versus control group, not statistically significant",trend toward decreased early death
same,inflammation at the interface between the hepatic parenchyma and the portal tracts (interface hepatitis),TIA mice,reduces
same,inflammation at the interface between the hepatic parenchyma and the portal tracts (interface hepatitis),TIA mice; listed as remogliflozin,less inflammation
same,proliferation of bile ductules (bile ductular proliferation),TIA mice,reduces
same,periportal and biliary inflammation,TIA mice; listed as Remo,decrease in periportal and biliary inflammation
same,proliferation of bile ductules (bile ductular proliferation),TIA mice; listed as Remo,decrease in proliferation of bile ductules
same,periportal and biliary inflammation,TIA mice; listed as remogliflozin,less inflammation
same,proliferation of bile ductules (bile ductular proliferation),TIA mice; listed as remogliflozin,less proliferation of bile ductiles
same,development and progression of liver and biliary disease,"TIA mice; TIA mice, 0.03% remogliflozin etabonate in diet for 7 weeks from 4 weeks of age, vs standard diet",prevents the progression of PBC disease pathology; also recorded: markedly less development and progression of liver and biliary disease
same,inflammatory cell infiltration,"TIA mice; TIA mice, oral, 0.03% in diet for 7 weeks",reduces
same,Tmax,"[1]; IR remogliflozin etabonate oral dosage form, following ingestion",≤ 1 h
same,remogliflozin plasma concentration after clearance,"[1]; compressed IR tablet, 350 mg remogliflozin etabonate, oral, after 3 hrs",40 ng/mL
same,maximum remogliflozin plasma concentration (Cmax),"[1]; compressed IR tablet, 350 mg remogliflozin etabonate, oral, at 1 hr post-ingestion",160 ng/mL
